Experiments:
[1] = system: SARS Coronavirus 2 recombinant with NanoLuc (SARS-CoV2-NLuc) in A549-hACE2 cells; experiment: microbe, parasite or virus in culture; format: cell-based; conditions: A549; read-out: EC50 SARS CoV2 NanoLuc A549 384
[2] = system: Respiratory syncytial virus recombinant with luciferase (RSV-Luc5) in HEp-2 cells; experiment: microbe, parasite or virus in culture; format: cell-based; conditions: human respiratory syncytial virus, HEp-2, read-out: EC50 RSVFluc-Hep2 384 V2
[3] = system: Respiratory syncytial virus recombinant with luciferase (RSV-Luc5) in Normal Human Bronchial Epithelial (NHBE) cells; experiment: microbe, parasite or virus in culture; format: cell-based; conditions: read-out: EC50 RSVFluc-NHBE 384 V2
[4] = CC50 MT4 cytotoxicity (Cell-Titer Glo); format: cell-based; conditions: human; uninfected MT-4 cells; Table D3; read-out: CC50 MT4 384
How it was run: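 Uninfected MT-4 and HEp-2 cells cultured 4-5 days at 37° C with 3-fold serially diluted compound (15 nM to 100,000 nM). Viability read by Cell-Titer Glo luminescence; untreated and 2 μM puromycin wells set 100% and 0%. CC50 from non-linear regression as concentration reducing viability by 50%.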

[5] = male, Sprague-Dawley, rat, in vivo, po
Description: Example E: Rat pharmacokinetics assay
Blood samples were collected into pre-chilled collection tubes containing K2EDTA and processed to plasma at 10 time points over a span of pre-dose to 24 h post-administration. Plasma samples were subject to protein precipitation with a 12.5-fold volume of methanol, vortexed and centrifuged. Supernatants were transferred and evaporated to dryness under nitrogen and reconstituted with 5% acetonitrile in water.

[6] = Stability in pH2 buffered solution; format: physicochemical; conditions: 50 µg/mL, pH 2
How it was run: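 Compounds diluted from 1 mg/mL acetonitrile stock to 50 μg/mL in 50 mM phosphate buffer with 150 mM NaCl at pH2 or pH7, held at 40° C. for 24 hrs. UPLC sampling at 0, 3, 6, 9, 12 hrs, plus 24 hrs from oven-stored duplicate; reported as % area normalized of compound peak.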

[7] = system: Caco-2 cells (clone C2BBe1); experiment: CACO-2 permeability; format: in vitro ADME; set-up: unit not given here
How it was run: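 Caco-2 monolayers grown 21 days on collagen-coated transwells and checked for integrity by TEER. Donor buffer was HBSS/HEPES/glucose pH 6.5 with 200 μM BNPP; receiver was pH 7.4 with BSA. Compounds were dosed apically or basolaterally for A-to-B and B-to-A transport, with receiver sampling at 1 and 2 h, LC-MS/MS analysis and percent recovery.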

[8] = GI S9 stability - no PMSF; format: in vitro ADME; conditions: human, s9, 2 µM, pH 7.4
How it was run: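 Compounds were incubated at 2 μM with PMSF-free intestinal S9 (1 mg/mL protein) in 100 mM PBS, pH 7.4, sampling at 6 time points over 120 min. Parent disappearance and formation of the nucleoside metabolite Reference Compound A were quantified by LC-MS (Q-Exactive) using analyte/internal standard peak area ratios.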

Plasma stability = format: in vitro ADME; set-up: unit not given here; conditions: 37° C., 2 μM substrate
How it was run: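 Reaction mixture was sampled at 0.05, 0.5, 1, 2, 3 and 4 hr into quench solution containing internal standard, then centrifuged and diluted with water. Remaining analyte was measured by LC-MS on a Q-Exactive using a formic acid/acetonitrile gradient, with 5 ppm mass tolerance.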

SMILES	EC50 [1]	logD (DM logD)	EC50 [2]	EC50 [3]	CC50 [4]	Cmax [5]	Reference Compound A AUCinf. [5]	Reference Compound A F % ([5]; 1 mg/kg)	Stability at pH2, 0 hr ([6]; 0 h)	Stability at pH2, 3 hr ([6]; 3 h)	Stability at pH2, 6 hr ([6]; 6 h)	Stability at pH2, 9 hr ([6]; 9 h)	Stability at pH2, 12 hr ([6]; 12 h)	Stability at pH2, 24 hr ([6]; 24 h)	DM Caco2 A to B ([7]; apical to basolateral, donor pH 6.5, receiver pH 7.4)	DM Caco2 B to A ([7]; basolateral to apical)	GIS9-HUMAN-NoPMSF T1/2 [8]	STA Human Plasma 37 (Plasma stability)
N#C[C@@]1(c2ccc3c(N)ncnn23)O[C@H](COC(=O)OCCl)[C@@H](O)[C@H]1O [Compound 101, ((2R,3S,4R,5R)-5-(4-aminopyrrolo[2,1-f][1,2,4]triazin-7-yl)-5-cyano-3,4-dihydroxytetrahydrofuran-2-yl)methyl (chloromethyl) carbonate]	3.21 µM	0.9	1.84 µM	1.96 µM	> 50 µM													
CC(C)C(=O)OC[C@H]1O[C@@](C#N)(c2ccc3c(N)ncnn23)[C@H](O)[C@@H]1O [Ester Reference Compound]						2100 nM	7.57 µM·h	63.6%	98.5 % AN	97.8 % AN	97.3 % AN	96.7 % AN	96.1 % AN	94.4 % AN				
CN1[C@@H]2CC[C@H]1C[C@@H](OC(=O)OC[C@H]1O[C@@](C#N)(c3ccc4c(N)ncnn34)[C@H](O)[C@@H]1O)C2 [Compound 156, ((2R,3S,4R,5R)-5-(4-aminopyrrolo[2,1-f][1,2,4]triazin-7-yl)-5-cyano-3,4-dihydroxytetrahydrofuran-2-yl)methyl ((1R,3r,5S)-8-methyl-8-azabicyclo[3.2.1]octan-3-yl) carbonate]	31.4 µM	0.3		49.8 µM	> 50 µM										0.12	0.13	789	248.79
CCOP(=O)(O)O[C@H]1[C@@H](O)[C@](C#N)(c2ccc3c(N)ncnn23)O[C@@H]1COC(=O)OC(C)C [Compound 144, [(2R,3S,4R,5R)-5-(4-aminopyrrolo[2,1-f][1,2,4]triazin-7-yl)-5-cyano-3-[ethoxy(hydroxy)phosphoryl]oxy-4-hydroxy-tetrahydrofuran-2-yl]methyl isopropyl carbonate]	> 50 µM	0.4		3.06 µM	> 50 µM													

Reference: patent US12448383B2, “Compounds and methods for treatment of viral infections” (priority 2022, dated 2025)
